The record followed here is ChEMBL document CHEMBL1201862, “PubChem BioAssay data set” (2004).

Some test systems named below: KM-20L2; DMS-114; HOP-18; DLD-1; SNB-78; LXFL 529; M19-MEL; XF498; RXF 631.
Common to all, as to experiment: NCI anticancer screen, dose series, 48 h

SMILES strings stand for the structures.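 Results reflect a 48-hour exposure of cells in 96-well plates to compound at five concentrations. Here, GI50 denotes the concentration required for 50% inhibition of growth.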 Calls of active or inactive are those of the source. Cut-off read from the data, not from the text of the source: active = GI50 up to about 1.1 µM and inactive = higher.

As to `[O-][S+]1C(=c2ccc(=C3Sc4ccccc4S3)cc2)Sc2ccccc21` (centres undefined), the GI50 in the assay with KM-20L2 was 17.3 µM (inactive); in the assay on DMS-114, 20.8 µM (inactive); in the assay on HOP-18, > 100 µM (inactive); with DLD-1, 27.4 µM (inactive); in the assay on SNB-78, 53.3 µM (inactive); in the assay on LXFL 529, 51.2 µM (inactive). The GI50 in the assay with M19-MEL is 19.7 µM (inactive).

For `CCCCCCCCCCCCCCCC(=O)NCC(OCC)OCC`, the GI50 in the assay on KM-20L2, in the assay on DMS-114, with HOP-18, in the assay with DLD-1, in the assay on XF498 and in the assay with SNB-78 was > 100 µM (inactive) each time. The GI50 in the assay on RXF 631, in the assay with LXFL 529 and with M19-MEL was > 100 µM (inactive) throughout.

For `O=C(NC(=O)c1cc2cc(Br)cc(Br)c2oc1=O)Oc1ccccc1`, the GI50 with KM-20L2 is > 100 µM (inactive); in the assay on DMS-114, 65.2 µM (inactive); in the assay on HOP-18, > 100 µM (inactive); with DLD-1 it was > 100 µM (inactive); in the assay on XF498, 37.4 µM (inactive); in the assay with SNB-78, > 100 µM (inactive). Besides, the GI50 in the assay with LXFL 529 and in the assay with M19-MEL was > 100 µM (inactive) each time.

Consider `O=C1OC2(OC2c2ccccc2)c2ccccc21` (centres undefined), for which the GI50 was > 100 µM (inactive) in the assay with KM-20L2; 1.32 µM (inactive) in the assay with DMS-114; > 100 µM (inactive) in the assay with DLD-1; > 100 µM (inactive) with XF498; > 100 µM (inactive) in the assay on LXFL 529; > 100 µM (inactive) with M19-MEL.

For the molecule `O=C(CCc1nnc(S)[nH]1)Nc1cc(Cl)ccc1Cl`, the GI50 with KM-20L2, in the assay on DMS-114, with HOP-18, with DLD-1, with RXF 631 and in the assay on LXFL 529 was > 100 µM (inactive) each time. In addition, the GI50 in the assay on M19-MEL is > 100 µM (inactive).

`COC(=O)C(c1n[nH]c2ccccc12)C(C(=O)OC)c1n[nH]c2ccccc12` (centres undefined): the GI50 with KM-20L2 was > 100 µM (inactive); in the assay on DMS-114 it was 29.4 µM (inactive); in the assay on HOP-18, 59.2 µM (inactive); in the assay on DLD-1, 36.3 µM (inactive); in the assay with XF498, 41.8 µM (inactive); in the assay with SNB-78, 38.1 µM (inactive). The GI50 is > 100 µM (inactive) with RXF 631, 26.2 µM (inactive) in the assay with LXFL 529 and > 100 µM (inactive) in the assay on M19-MEL.

As for `N#C/N=C1\NC(Cc2ccccc2)C(=O)N1CCc1c[nH]c2ccccc12` (centres undefined), the GI50 in the assay on DMS-114 was 29.3 µM (inactive); in the assay with DLD-1 it was 33.9 µM (inactive); with XF498, 27.4 µM (inactive); with SNB-78 it was 21.8 µM (inactive); in the assay on LXFL 529, 30.1 µM (inactive); with M19-MEL it was 30.1 µM (inactive).

For `COc1cc(C2c3cc4c(cc3[C@H](NC(=O)c3cccs3)C3COC(=O)[C@H]23)OCO4)cc(OC)c1OC` (some centres undefined), the GI50 in the assay with KM-20L2 was 0.0199 µM (active); in the assay with DMS-114, 0.0113 µM (active); in the assay on HOP-18, > 100 µM (inactive); in the assay with DLD-1, 0.0297 µM (active); in the assay with SNB-78, > 100 µM (inactive); in the assay with LXFL 529, 0.0296 µM (active).

`Cc1cc(C)nc(NS(=O)(=O)c2ccc(NC(=O)c3cccc4c(Nc5ccc(S(=O)(=O)N=C(N)N)cc5)c5ccc(Cl)cc5nc34)cc2)n1`: the GI50 is 59 µM (inactive) with KM-20L2; 45.7 µM (inactive) in the assay on DMS-114; 17.7 µM (inactive) in the assay with DLD-1; > 100 µM (inactive) in the assay on XF498; 40.6 µM (inactive) in the assay with SNB-78; 28.6 µM (inactive) in the assay on RXF 631. Besides, the results for the GI50 in the assay on LXFL 529 and with M19-MEL were 27.6 µM (inactive) and 53.7 µM (inactive), respectively.

For the molecule `Nc1ccc(C(c2ccccc2)(c2ccccc2)c2ccccc2)cc1`, the GI50 in the assay with DMS-114 is 64 µM (inactive); with DLD-1 it was 95.9 µM (inactive); with XF498, 4.24 µM (inactive); with SNB-78, 34.4 µM (inactive); in the assay on RXF 631, 47 µM (inactive); with LXFL 529 it was 37.1 µM (inactive). For the same molecule, the GI50 in the assay on M19-MEL was 55.8 µM (inactive).

`CC(C)(C)N/N=C(\C(=O)Nc1nnc(S)[nH]1)C1C(=O)Nc2ccccc2[S+]1[O-]` (centres undefined): the GI50 with KM-20L2, in the assay with DMS-114, in the assay with HOP-18, in the assay with DLD-1, in the assay with XF498 and in the assay on SNB-78 was > 100 µM (inactive) throughout. For the same molecule, the GI50 in the assay on RXF 631, in the assay with LXFL 529 and in the assay with M19-MEL was > 100 µM (inactive) each time.

Turning to `Cc1cccc(C(C)(C)C)c1NC(=O)CC1C(=O)Nc2ccccc2S1(=O)=O` (centres undefined), the GI50 was 9.29 µM (inactive) in the assay on KM-20L2; 5.5 µM (inactive) with DLD-1; 11.1 µM (inactive) with XF498; 8.24 µM (inactive) in the assay with SNB-78; 12 µM (inactive) with LXFL 529; 12.4 µM (inactive) in the assay with M19-MEL.

With `O=C(CC1Sc2ccccc2NC1=O)Nc1cc(Cl)ccc1Cl` (centres undefined), the GI50 with KM-20L2, in the assay with DMS-114, with DLD-1, in the assay with SNB-78, in the assay with RXF 631 and with LXFL 529 was > 100 µM (inactive) throughout. Further, the GI50 in the assay with M19-MEL was > 100 µM (inactive).

For `C/C(O)=C1\CC2CN3CCc4c([nH]c5ccccc45)C3CC2CC1=O` (centres undefined), the GI50 in the assay with KM-20L2 is 92 µM (inactive); in the assay on DMS-114, 46.2 µM (inactive); in the assay on HOP-18 it was 52.8 µM (inactive); in the assay on DLD-1 it was 40.6 µM (inactive); with XF498 it was 32 µM (inactive); with SNB-78 it was 32.9 µM (inactive). In addition, the GI50 in the assay on LXFL 529 was 34.4 µM (inactive).

For `COc1ccc(C2C(Cl)C(=O)N2NC(=O)c2ccc(NC(C)=O)cc2)cc1` (centres undefined), the GI50 in the assay with KM-20L2, in the assay on DLD-1, in the assay with XF498, in the assay on SNB-78, with LXFL 529 and in the assay on M19-MEL was > 100 µM (inactive) throughout.

In the case of `Cc1nc(N)nc(N)c1-c1ccc(Cl)c(Cl)c1` [METOPRINE], the GI50 in the assay with KM-20L2 is 0.94 µM (active); in the assay with DMS-114 it was 0.149 µM (active); with HOP-18, 25.8 µM (inactive); in the assay on DLD-1, 0.427 µM (active); with XF498, 34.8 µM (inactive); in the assay with SNB-78, 26.3 µM (inactive). Moreover, the figures for the GI50 in the assay with LXFL 529 and in the assay on M19-MEL were 0.404 µM (active) and 2.36 µM (inactive), respectively.

Turning to `CC(C)NC(=O)OCc1nnn2c1C(OC(=O)NC(C)C)CC2` (centres undefined), the GI50 with KM-20L2, with DMS-114, in the assay on HOP-18, in the assay on DLD-1, with XF498 and with SNB-78 was > 100 µM (inactive) in each case. In addition, the GI50 in the assay on RXF 631, with LXFL 529 and in the assay with M19-MEL was > 100 µM (inactive) in each case.

Consider `COC(=O)[C@H]1COC(=S)N1C(=O)[C@@H](C)[C@H](O)C(C)C`, for which the GI50 is > 100 µM (inactive) with KM-20L2; 84.7 µM (inactive) in the assay on DMS-114; > 100 µM (inactive) in the assay with HOP-18; > 100 µM (inactive) in the assay with DLD-1; > 100 µM (inactive) in the assay on XF498; > 100 µM (inactive) with SNB-78. The GI50 in the assay with RXF 631, with LXFL 529 and with M19-MEL was > 100 µM (inactive) each time.

As for `COc1ccc2c(c1)CN1CCc3c(cc(OC)c(OC)c3OC)C1C2` (centres undefined), the GI50 was > 100 µM (inactive) in the assay on KM-20L2; 58.5 µM (inactive) with DMS-114; > 100 µM (inactive) in the assay with HOP-18; > 100 µM (inactive) with DLD-1; 38.7 µM (inactive) with XF498; > 100 µM (inactive) with SNB-78. Moreover, the GI50 is 39.4 µM (inactive) in the assay with LXFL 529 and > 100 µM (inactive) with M19-MEL.

Consider `C[C@]12CCc3nonc3C1CC[C@@H]1C2CC[C@]2(C)NC(=O)CCC12` (some centres undefined), for which the GI50 in the assay on KM-20L2, in the assay on HOP-18, in the assay on XF498, in the assay with SNB-78, in the assay on RXF 631 and in the assay with LXFL 529 was > 100 µM (inactive) throughout. Further, the GI50 in the assay with M19-MEL is > 100 µM (inactive).

`Cc1c(C(=O)CC(=O)C(=O)Nc2ccc(Cl)cc2)[n+]([O-])c2ccccc2[n+]1[O-]`: the GI50 with KM-20L2 was > 100 µM (inactive); in the assay on DMS-114 it was > 100 µM (inactive); in the assay with HOP-18 it was 75 µM (inactive); with DLD-1, > 100 µM (inactive); in the assay with XF498 it was > 100 µM (inactive); in the assay with SNB-78, > 100 µM (inactive). Also, the GI50 in the assay with LXFL 529 and in the assay on M19-MEL was > 100 µM (inactive) each time.

Regarding `O=C1c2ccccc2-c2ccccc2C(=O)C1(Br)Br`, the GI50 with KM-20L2 is 16.9 µM (inactive); in the assay with DMS-114 it was 15.2 µM (inactive); in the assay with HOP-18 it was 13.4 µM (inactive); in the assay on DLD-1, 6.75 µM (inactive); with SNB-78 it was 8.11 µM (inactive); in the assay with LXFL 529, 7.96 µM (inactive). Besides, the GI50 in the assay with M19-MEL was 8.69 µM (inactive).
